Experimental data taken from ChEMBL document CHEMBL5154765, “Design, synthesis, and biological evaluation of novel spiro[pyrrolidine-2,3'-quinolin]-2'-one derivatives as potential chitin synthase inhibitors and antifungal agents” (Eur J Med Chem, 2022).
Converted amounts (≈) assume the structure as drawn. *1 amine or outer side, *2 acyl side, *3 side chain or, on linkers, in order; H or OH if unused. Where a SMILES comes first, the peptide text is derived from it. Bridges are numbered along the chain shown (N, C = ends). [ ]: non-standard residue; d: D form. The star is where a group is joined. hTyr(3S-OH,4S-OH,3'-OSO3H) = N[C@H](C(=O)O)[C@H](O)[C@@H](O)c1ccc(O)c(OS(=O)(=O)O)c1; Orn(4R-OH,5R-OH) = O=C([C@H](C[C@@H](O)[C@@H](O)N[*:3])N[*:1])[*:2]; Pro(3S-OH,4S-Me) = C[C@H]1CN[C@H](C(=O)O)[C@H]1O; X1 = CCCCCOc1ccc(-c2cc(-c3ccc(C(=O)*)cc3)no2)cc1; Gln(3R-OH) = NC(=O)C[C@@H](O)[C@H](N)C(=O)O; Hyp = O=C(O)[C@@H]1C[C@@H](O)CN1

How the values were obtained:
[1] = test system: Candida tropicalis; assay: Inhibition of Candida tropicalis ATCC750 chitin synthase at 300 ug/ml using UDP-GlcNAc as substrate incubated for 1 hr by microplate reader analysis relative to control; conditions: dose 300.0 µg/ml
[2] = Inhibition of Candida tropicalis ATCC750 chitin synthase using UDP-GlcNAc as substrate incubated for 1 hr by microplate reader analysis
[3] = test system: Candida albicans; assay: Antifungal activity against Candida albicans ATCC 76615 assessed as reduction in fungal growth incubated for 24 hrs by two fold broth dilution method; format: functional
[4] = test system: Aspergillus flavus; assay: Antifungal activity against Aspergillus flavus ATCC 16870 assessed as reduction in fungal growth incubated for 24 hrs by two fold broth dilution method; format: functional
[5] = test system: Aspergillus fumigatus; assay: Antifungal activity against Aspergillus fumigatus GIMCC 3.19 assessed as reduction in fungal growth incubated for 24 hrs by two fold broth dilution method; format: functional
[6] = test system: Cryptococcus neoformans; assay: Antifungal activity against Cryptococcus neoformans ATCC 32719 assessed as reduction in fungal growth incubated for 24 hrs by two fold broth dilution method; format: functional
[7] = test system: Candida albicans; assay: Antifungal activity against Candida albicans ATCC 76615 assessed as reduction in fungal growth in presence of sorbitol incubated for 24 hrs by two fold broth dilution method; format: functional
[8] = test system: Aspergillus flavus; assay: Antifungal activity against Aspergillus flavus ATCC 16870 assessed as reduction in fungal growth in presence of sorbitol incubated for 24 hrs by two fold broth dilution method; format: functional
[9] = test system: Aspergillus fumigatus; assay: Antifungal activity against Aspergillus fumigatus GIMCC 3.19 assessed as reduction in fungal growth in presence of sorbitol incubated for 24 hrs by two fold broth dilution method; format: functional
[10] = test system: Cryptococcus neoformans; assay: Antifungal activity against Cryptococcus neoformans ATCC 32719 assessed as reduction in fungal growth in presence of sorbitol incubated for 24 hrs by two fold broth dilution method; format: functional
[11] = test system: Candida albicans; assay: Antifungal activity against fluconazole resistant Candida albicans ATCC 76615 assessed as reduction in fungal growth incubated for 24 hrs by two fold broth dilution method; format: functional
[12] = test system: Aspergillus flavus; assay: Antifungal activity against fluconazole resistant Aspergillus flavus ATCC 16870 assessed as reduction in fungal growth incubated for 24 hrs by two fold broth dilution method; format: functional
[13] = test system: Aspergillus fumigatus; assay: Antifungal activity against fluconazole resistant Aspergillus fumigatus GIMCC 3.19 assessed as reduction in fungal growth incubated for 24 hrs by two fold broth dilution method; format: functional
[14] = test system: Cryptococcus neoformans; assay: Antifungal activity against fluconazole resistant Cryptococcus neoformans ATCC 32719 assessed as reduction in fungal growth incubated for 24 hrs by two fold broth dilution method; format: functional
[15] = test system: Candida albicans; assay: Antifungal activity against micafungin resistant Candida albicans ATCC 76615 assessed as reduction in fungal growth incubated for 24 hrs by two fold broth dilution method; format: functional

SMILES	inhibition [1] [%]	IC50 [2] [µM]	MIC [3] [µg/mL]	MIC [4] [µg/mL]	MIC [5] [µg/mL]	MIC [6] [µg/mL]	MIC [7] [µg/mL]	MIC [8] [µg/mL]	MIC [9] [µg/mL]	MIC [10] [µg/mL]	MIC [11] [µg/mL]	MIC [12] [µg/mL]	MIC [13] [µg/mL]	MIC [14] [µg/mL]	MIC [15] [µg/mL]
O=C(/C=C/C(=O)N1CCCC12Cc1ccccc1NC2=O)Nc1cccc2ccccc12 (centres undefined)	53.6	570	8 (≈ 18.8 µM)	16 (≈ 37.6 µM)	16 (≈ 37.6 µM)	64 (≈ 150 µM)									
O=C(/C=C/C(=O)N1CCCC12Cc1ccccc1NC2=O)Nc1ccc(Br)cc1 (centres undefined)	56.4	520	8 (≈ 17.6 µM)	16 (≈ 35.2 µM)	16 (≈ 35.2 µM)	16 (≈ 35.2 µM)									
O=C(/C=C/C(=O)N1CCCC12Cc1ccccc1NC2=O)Nc1ccc(Cl)cc1Cl (centres undefined)	73.7	170	4 (≈ 9 µM)	8 (≈ 18 µM)	8 (≈ 18 µM)	16 (≈ 36 µM)	64	128	64	128	64 (≈ 144 µM)	64 (≈ 144 µM)	64 (≈ 144 µM)	64 (≈ 144 µM)	64 (≈ 144 µM)
COc1ccccc1NC(=O)/C=C/C(=O)N1CCCC12Cc1ccccc1NC2=O (centres undefined)	65.2	300	8 (≈ 19.7 µM)	16 (≈ 39.5 µM)	8 (≈ 19.7 µM)	64 (≈ 158 µM)									
OC(Cn1cncn1)(Cn1cncn1)c1ccc(F)cc1F [FLUCONAZOLE]			4 (≈ 13.1 µM)	8 (≈ 26.1 µM)	4 (≈ 13.1 µM)	8 (≈ 26.1 µM)					> 256	> 256	> 256	> 256	
Cc1cccc(NC(=O)/C=C/C(=O)N2CCCC23Cc2ccccc2NC3=O)c1 (centres undefined)	44.1	1210	16 (≈ 41.1 µM)	32 (≈ 82.2 µM)	64 (≈ 164 µM)	128 (≈ 329 µM)									
CCCCCOc1ccc(-c2cc(-c3ccc(C(=O)N[C@H]4C[C@@H](O)[C@@H](O)NC(=O)[C@@H]5[C@@H](O)[C@@H](C)CN5C(=O)[C@H]([C@H](O)CC(N)=O)NC(=O)[C@H]([C@H](O)[C@@H](O)c5ccc(O)c(OS(=O)(=O)O)c5)NC(=O)[C@@H]5C[C@@H](O)CN5C(=O)[C@H]([C@@H](C)O)NC4=O)cc3)no2)cc1 [MICAFUNGIN] (X1-[Orn(4R-OH,5R-OH)]T[Hyp][hTyr(3S-OH,4S-OH,3'-OSO3H)][Gln(3R-OH)][Pro(3S-OH,4S-Me)]; lactam 1-C)															> 256
O=C(/C=C/C(=O)N1CCCC12Cc1ccccc1NC2=O)Nc1ccc(Cl)cc1 (centres undefined)	71.8	170	4 (≈ 9.76 µM)	8 (≈ 19.5 µM)	4 (≈ 9.76 µM)	16 (≈ 39 µM)	32	64	64	128	128 (≈ 312 µM)	64 (≈ 156 µM)	64 (≈ 156 µM)	128 (≈ 312 µM)	128 (≈ 312 µM)
COc1cc(NC(=O)/C=C/C(=O)N2CCCC23Cc2ccccc2NC3=O)c(OC)cc1Cl (centres undefined)	67.9	200	8 (≈ 17 µM)	16 (≈ 34 µM)	32 (≈ 68.1 µM)	32 (≈ 68.1 µM)									
Cc1cc(C)cc(NC(=O)/C=C/C(=O)N2CCCC23Cc2ccccc2NC3=O)c1 (centres undefined)	45.7	990	16 (≈ 39.7 µM)	32 (≈ 79.3 µM)	32 (≈ 79.3 µM)	32 (≈ 79.3 µM)									
Cc1ccccc1NC(=O)/C=C/C(=O)N1CCCC12Cc1ccccc1NC2=O (centres undefined)	47.2	970	8 (≈ 20.5 µM)	16 (≈ 41.1 µM)	8 (≈ 20.5 µM)	64 (≈ 164 µM)									
NC(=O)OC[C@H](O)[C@@H](O)[C@H](N)C(=O)N[C@H](C(=O)O)[C@H]1O[C@@H](n2cc(CO)c(=O)[nH]c2=O)[C@H](O)[C@@H]1O [POLYOXIN B]	86.1	90	8 (≈ 15.8 µM)	8 (≈ 15.8 µM)	8 (≈ 15.8 µM)	16 (≈ 31.5 µM)	64	64	64	128					
COc1ccc(NC(=O)/C=C/C(=O)N2CCCC23Cc2ccccc2NC3=O)cc1 (centres undefined)	50.9	590	16 (≈ 39.5 µM)	32 (≈ 78.9 µM)	8 (≈ 19.7 µM)	32 (≈ 78.9 µM)									
COc1cccc(NC(=O)/C=C/C(=O)N2CCCC23Cc2ccccc2NC3=O)c1 (centres undefined)	48.3	770	8 (≈ 19.7 µM)	16 (≈ 39.5 µM)	32 (≈ 78.9 µM)	32 (≈ 78.9 µM)									
Cc1ccc(NC(=O)/C=C/C(=O)N2CCCC23Cc2ccccc2NC3=O)cc1 (centres undefined)	46.4	1070	32 (≈ 82.2 µM)	16 (≈ 41.1 µM)	64 (≈ 164 µM)	64 (≈ 164 µM)									
O=C(/C=C/C(=O)N1CCCC12Cc1ccccc1NC2=O)Nc1ccccc1Cl (centres undefined)	76.1	120	4 (≈ 9.76 µM)	8 (≈ 19.5 µM)	4 (≈ 9.76 µM)	8 (≈ 19.5 µM)	32	128	64	64	32 (≈ 78.1 µM)	16 (≈ 39 µM)	32 (≈ 78.1 µM)	32 (≈ 78.1 µM)	32 (≈ 78.1 µM)
